Measurements as given in paper PMC4053396, “Cloning, expression and biochemical characterization of the cholesterol oxidase CgChoA from Chryseobacterium gleum” (BMC Biotechnology, 2014).

T1: CgChoA (Chryseobacterium gleum, UniProt A0ABP2IT22)
T1 construct: gene HMPREF0204_11499
T1 sequence (A0ABP2IT22 1-528): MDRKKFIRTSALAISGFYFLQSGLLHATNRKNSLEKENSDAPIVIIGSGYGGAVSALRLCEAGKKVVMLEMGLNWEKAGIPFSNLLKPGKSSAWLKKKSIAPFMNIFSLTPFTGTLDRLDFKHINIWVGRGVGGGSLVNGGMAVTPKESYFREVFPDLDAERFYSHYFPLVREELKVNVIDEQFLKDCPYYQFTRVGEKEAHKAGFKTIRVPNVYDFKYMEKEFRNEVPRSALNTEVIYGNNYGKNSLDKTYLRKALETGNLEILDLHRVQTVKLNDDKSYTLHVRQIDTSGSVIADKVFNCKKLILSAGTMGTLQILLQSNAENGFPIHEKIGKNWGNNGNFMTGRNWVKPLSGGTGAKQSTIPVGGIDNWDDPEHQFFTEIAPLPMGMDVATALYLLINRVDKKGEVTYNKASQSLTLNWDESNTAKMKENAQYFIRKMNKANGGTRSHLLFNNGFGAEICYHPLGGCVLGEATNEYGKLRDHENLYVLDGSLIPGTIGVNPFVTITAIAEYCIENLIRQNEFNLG

B1: CgChoA (Chryseobacterium gleum ATCC 35910) (protein)
chain: T1 sequence (A0ABP2IT22 1-528)

Assays:
CgChoA = molecular target: T1, CgChoA; experiment: UV-vis spectrum of purified protein and of supernatant after boiling; type: binding; conditions: co-purified cofactor; non-covalently bound
[1] = substrate: CC(C)CCC[C@@H](C)[C@H]1CC[C@H]2[C@@H]3CC=C4C[C@@H](O)CC[C@]4(C)[C@H]3CC[C@]12C; experiment: HRP-coupled H2O2 assay, initial rates; type: biochemical, Chryseobacterium gleum; conditions: cholesterol dispersed in water with taurocholate as sole surfactant, 0.011 M MOPS pH 6.75, 35°C, O2 as co-substrate

Molecule | UV-vis spectrum of purified protein and of supernatant after boiling (CgChoA) | Km [1]
Cc1cc2nc3c(=O)[nH]c(=O)nc-3n(C[C@H](O)[C@H](O)[C@H](O)COP(=O)(O)OP(=O)(O)OC[C@H]3O[C@@H](n4cnc5c(N)ncnc54)[C@H](O)[C@@H]3O)c2cc1C [FAD] | Only FAD that is non-covalently associated with the enzyme is detectable by this method | –
B1 | – | 500 µM
